One series concerns B16-F1 tumor. The series is described as follows: Mouse B16-F1 tumor model, molecule alone. The series is classed as in vivo, C57BL/6 mice. The note with it: intra-tumoral, 3 injections. As for the experimental part:
Measurements were performed under gas anesthesia.
The second group received intra-tumoral injections of CL413 molecule alone (a TLR7-TLR2 Pam2CSK4-based molecule). Third and forth groups received intra-tumoral injections of the TLR2 ligand, Pam2CSK4 alone, and the TLR7 ligand alone, respectively. A fifth group received a combined treatment of Pam2CSK4 and TLR7 ligand, in solution at the equivalent molecule quantity of the respective TLR2 and TLR7 moieties in CL413 (in 100µl Bionolyte G5® with Pluronic® F-68 2%) for a total of 3 injections.

Series [1] in a line: Determination of nanoparticle (lipoplex) size by dynamic light scattering. The series is classed as physicochemical. The note with it: ratio 3:24 (w:w); for Conformity (C)/ Non-conformity (NC) / Mean Diameter (nm): complexes with pDNA; for Mean Diameter (nm): dynamic light scattering at 25°C; for Mean Diameter (nm) / PDI: triplicate measurements; for PDI: polydispersity index of complexes with pDNA, 25°C. As to the method: • 1. Preparative HPLC Method: Unless otherwise indicated, the compounds described herein were purified by RP-MPLC ARMEN® Spot Flash Liquid Chromatography (ARMEN Instrument, Saint Ave, France) on a preparative column (SVF D26) packed with 25-40 µm C18 resin (Merck chimie SAS), by applying a linear gradient of 0-10% MeCN in NH4OAc (10 mM) solution (pH = 9) over 60 min at a 15 mL/min flow rate. The purification was monitored at 254 nm. Suitable fractions were pooled and lyophilised. • 2. Proton NMR Spectra: Unless otherwise indicated, all ^1H NMR spectra were run on a Bruker series 300 MHz instrument. Where so characterized, all observed protons are reported as parts-per-million (ppm) downfield from tetramethylsilane (TMS) or other internal reference in the appropriate solvent indicated. NMR spectra were recorded on a Brucker 300 spectrometer. For ^1H (300 MHz) spectra δ values were referenced to CDCI3-d1 (7.26 ppm), DMSO- d6 (2.50 ppm), D2O-d2 (4.79 ppm) or MeOD-d4 (3.31 ppm). The peak patterns are indicated as follows: s: singlet, sl: large singlet, d: doublet, t: triplet, q: quartet, m: multiplet. • 3. Mass Spectra (MS): Analyses were run on an Agilent Model 6130 quadrupole MS. Unless otherwise indicated, all mass spectral data for starting materials, intermediates and/or exemplary compounds are reported as mass/charge (m/z), having an (M+H)^+ molecular ion. The molecular ion reported was obtained by electrospray detection method (commonly referred to as an ESI MS). Compounds having an isotopic atom, such as bromine and the like, are generally reported according to the detected isotopic pattern, as appreciated by those skilled in the art. • 4. Particle size: Particle size was determined using a Malvern Nanosizer (Malvern, Worcestershire, UK) and Malvern ZETASIZER.RTM. (Malvern, Worcestershire, UK). • 5. Naming Convention The compounds disclosed and described herein have been named using the naming convention provided with Chem-Draw Ultra 11.0 software, available in Chem. Office. In some instances, compounds were named with the term "spermine" inserted where appropriate. For example, where the spermine is substituted with Boc, "N1,N5,N10-TriBoc-spermine" is added to the Chem-Draw nomenclature in the appropriate place. Chem-Draw utilizes the ISIS Draw software compound naming convention, as appreciated by those skilled in the art.
For pDNA:TLR7-TLR2 polyamine molecules complexes, a ratio pDNA:TLR7-TLR2 polyamine molecules of 3:24 (w:w) was prepared in serum-free culture medium or in 5% glucose. The TLR7-TLR2 conjugated compound of interest was prediluted in serum-free culture medium or in 5% glucose and incubated for 5 minutes at room temperature, prior to the addition of an endotoxin-free, salt-free preparation of pDNA. In these experiments, the pBsr2pCpGLacZh plasmid was used in the pDNA:TLR7-TLR2 polyamine molecule complexes. The pDNA:TLR7-TLR2 polyamine molecule mixtures were incubated at room temperature for 30 minutes to allow the formation of the complex. The control used in these experiments was the cationic lipid transfection agent LyoVec™ (InvivoGen) prepared in a similar manner.
In order to confirm that TLR7-TLR2 polyamine molecules complex DNA, lipoplex size was determined. The physical characterization of complex was achieved by dynamic light scattering using the analytical equipment for laser diffraction Zetasizer Nano-ZS (Malvern). pDNA:TLR7-TLR2 polyamine molecule complexes were prepared as described above. Subsequently, 50µl of pDNA: TLR7-TLR2 polyamine molecule complexes were placed into a disposable sizing cuvette and measurements were made under conditions defined according to manufacturer's instructions. The measurements were made at 25°C in triplicate and a size distribution report was obtained. […]

The subject of the next series is B16-F1 cells. The series is described as follows: Cell transfection with SEAP plasmid, B16-F1. The series is classed as cell-based, mouse. The note with it: Figure 5B; in complex with pVitro14 LGFP SEAP plasmid, 48 hours, SEAP reporter gene expression. As to the method: (§1) The TLR7-TLR2 molecules were tested for their ability as polyamine molecules to transport plasmid DNA (pDNA) into cells. The pVitro14 LGFP SEAP plasmid (InvivoGen) was complexed to TLR7-TLR2 polyamine molecules and to the control cationic lipid transfection agent, LyoVec™ (InvivoGen). The human HEK293 (ATCC, CRL-1573) and mouse B16-F1 melanoma (ATCC, CRL-6323) cell lines were seeded at a density of 50 000 cells/well and 20 000 cells/well respectively, in the absence or presence of different volumes of the plasmid encoding for the SEAP protein in complex with TLR7-TLR2 polyamine molecules for 48 hours at 37°C and 10% CO2. Transfection efficiency was assessed by measuring SEAP reporter gene expression: 20 µl of supernatant was sampled and mixed with 180 µl of QUANTI-Blue™ Detection (InvivoGen). In the presence of alkaline phosphatase SEAP, the color of QUANTI-Blue™ changes from pink to purple/blue. The intensity of the blue hue reflects the activity of SEAP. The levels of SEAP secretion were determined quantitatively by reading the OD at 620-655 nm using a spectrophotometer, iMark™ Microplate Reader (BIO-RAD).
In general terms: Reporter assays use an easily measured gene product as a stand-in for the process of interest.

The next series deals with HEK293 cells. Description: Cell transfection with SEAP plasmid, HEK293. It counts as cell-based, human. The note with it: Figure 5A; in complex with pVitro14 LGFP SEAP plasmid, 48 hours, SEAP reporter gene expression. As to the method: as §1

Structures are written as SMILES. Values joined by “and” are separate entries in the source; they are usually repeats but may differ in a detail not shown here. Identical values can stand only once.

For `CCCCCCCCCCCCCCCC(=O)OCC(CSC[C@@H](N)C(=O)N[C@@H](CO)C(=O)N[C@@H](CCCCN)C(=O)N[C@@H](CCCCN)C(=O)N[C@@H](CCCCN)C(=O)N[C@H](CCCCN)C(=O)Nc1ccc(Cn2c(O)nc3c(N)nc(NCCCC)nc32)cc1)OC(=O)CCCCCCCCCCCCCCC` (stereo in doubt) [CL413, (6S,9S,12S,15S,18S,21R)-6,25-diamino-21-(4-((6-amino-2-(butylamino)-8-hydroxy-9H-purin-9-yl)methyl)phenylcarbamoyl)-12,15,18-tris(4-aminobutyl)-9-(hydroxylmethyl)-7,10, 13,16,19-pentaoxo-4-thia-8,11,14,17,20-pentaazapentacosane-1,2-diyl dipalmitate], the tumor volume entry in the series with B16-F1 tumor (Figure 8A, by day 23, compared to Pam2CSK4 alone, TLR7 ligand alone and vehicle control) is “no increase in tumor volume”. In the series on B16-F1 tumor (Figure 8B, by day 42), the “mice still alive (survival)” value was found to be 100%. In series [1], the “Conformity (C)/ Non-conformity (NC)” value is “C (ranged between 140 and 200 nm in diameter were considered to show conformity)”; the “Mean Diameter (nm)” value is 140,1 nm and 140,2 nm and 139,1 nm; the PDI is 0,178 and 0,187 and 0,229. The “ability to transfect B16-F1 cells” value with B16-F1 cells is “lack the ability to transfect cells”. Further, the “ability to transfect HEK293 cells” value with HEK293 cells was “lack the ability to transfect cells”.

On to `CCCCCCCCCCCCCCCC(=O)N[C@@H](CSCC(COC(=O)CCCCCCCCCCCCCCC)OC(=O)CCCCCCCCCCCCCCC)C(=O)N[C@@H](CO)C(=O)N[C@@H](CCCCN)C(=O)N[C@@H](CCCCN)C(=O)N[C@@H](CCCCN)C(=O)N[C@@H](CCCCN)C(=O)Nc1ccc(Cn2c(O)nc3c(N)nc(NCCCC)nc32)cc1` (stereo partly drawn) [CL534, ((6R,9S,12S,15S,18S,21S)-25-amino-21-(4-((6-amino-2-(butylamino)-8-hydroxy-9H-purin-9-yl)methyl)phenylcarbamoyl)-12,15,18-tris(4-aminobutyl)-9-(hydroxylmethyl)-7,10,13,16,19-pentaoxo-6-palmitamido-4-thia-8,11,14,17,20-pentaazapentacosane-1,2-diyl dipalmitate], for which, in series [1], the “Conformity (C)/ Non-conformity (NC)” value is “C (ranged between 140 and 200 nm in diameter were considered to show conformity)”; the “Mean Diameter (nm)” value is 165,5 nm and 187,1 nm and 182,3 nm; the PDI is 0,352 and 0,394 and 0,354. The “ability to transfect B16-F1 cells” value with B16-F1 cells is listed as “lack the ability to transfect cells”. The “ability to transfect HEK293 cells” value in the series with HEK293 cells is “lack the ability to transfect cells”.

With `CCCCCCCCCCCCCCCC(=O)N[C@@H](CSCC(COC(=O)CCCCCCCCCCCCCCC)OC(=O)CCCCCCCCCCCCCCC)C(=O)N[C@@H](CO)C(=O)N[C@@H](CCCCN)C(=O)N[C@@H](CCCCNC(=O)c1ccc(Cn2c(O)nc3c(N)nc(NCCCC)nc32)cc1)C(=O)N[C@@H](CCCCN)C(=O)N[C@@H](CCCCN)C(=O)O` (stereo partly drawn) [CL536, (2S,5S,8S,11S,14S,17R)-8-(4-(4-((6-amino-2-(butylamino)-8-hydroxy-9H-purin-9-yl)methyl)benzamido)butyl)-2,5,11-tris(4-aminobutyl)-14-(hydroxymethyl)-4,7,10, 13,16,24-hexaoxo-17-palmitamido-21-(palmitoyloxy)-23-oxa-19-thia-3,6,9,12,15-pentaazanonatriacontan-1-oic acid], in series [1], the “Conformity (C)/ Non-conformity (NC)” value was “NC (larger sizes were considered to show aggregates or non-conformity)”; the “Mean Diameter (nm)” value was 231,9 nm and 236,1 nm and 225,8 nm; the PDI was 0,465 and 0,583 and 0,65.

Take `CCCCCCCCCCCCCCCC(=O)N[C@@H](CSCC(COC(=O)CCCCCCCCCCCCCCC)OC(=O)CCCCCCCCCCCCCCC)C(=O)N[C@@H](CO)C(=O)N[C@@H](CCCCNC(=O)c1ccc(Cn2c(O)nc3c(N)nc(NCCCC)nc32)cc1)C(=O)N[C@@H](CCCCN)C(=O)N[C@@H](CCCCN)C(=O)N[C@@H](CCCCN)C(=O)O` (stereo partly drawn) [CL537, (2S,5S,8S,11S,14S,17R)-11-(4-(4-((6-amino-2-(butylamino)-8-hydroxy-9H-purin-9-yl)methyl)benzamido)butyl)-2,5,8-tris(4-aminobutyl)-14-(hydroxymethyl)-4,7,10, 13,16,24-hexaoxo-17-palmitamido-21-(palmitoyloxy)-23-oxa-19-thia-3,6,9,12,15-pentaazanonatria contan-1-oic acid]: in series [1], the “Conformity (C)/ Non-conformity (NC)” value is listed as “NC (larger sizes were considered to show aggregates or non-conformity)”; the “Mean Diameter (nm)” value is 198,1 nm and 203,5 nm and 219,3 nm; the PDI is 0,704 and 0,618 and 0,626.

(Values after patent EP2769738B1, “Conjugated TLR7 and/or TLR8 and TLR2 polycationic agonists” (Invivogen, priority 2013, dated 2014).)
